The record followed here is ChEMBL document CHEMBL4420063, “Pgam1 inhibitors and methods related thereto” (2014).

Molecules are shown by their SMILES.

The subject of one series is NHDF. Nature of the series: Antiproliferative activity against NHDF cells assessed as reduction in cell number up to 40 uM by trypan blue exclusion based assay. Conditions: human.
For a further series, the system named is HFF. In words: Antiproliferative activity against HFF cells assessed as reduction in cell number up to 40 uM by trypan blue exclusion based assay. Conditions: human.
The next series has as its system HaCaT. In words: Antiproliferative activity against human HaCaT cells assessed as reduction in cell number up to 40 uM by trypan blue exclusion based assay.
Series [1] can be described thus: Antiproliferative activity against human PIG1 cells assessed as reduction in cell number up to 40 uM by trypan blue exclusion based assay.
The nature of series [2]: Toxicity in ip dosed athymic nude-Foxn1nu mouse dosed for 4 weeks assessed as well-tolerated dose level. The format is organism-based. Conditions: in vivo, 672 h.
Series [3] in a line: Toxicity in athymic nude-Foxn1nu mouse assessed as effect on body weight at 100 mg/kg/day, ip for 7 days. In kind it is organism-based. Conditions: in vivo, 168 h.
The nature of series [4]: Toxicity in athymic nude-Foxn1nu mouse assessed as effect on complete blood counts at 100 mg/kg/day, ip for 7 days. Conditions: in vivo, 168 h. In kind it is organism-based.
Series [5] is described as follows: Toxicity in athymic nude-Foxn1nu mouse assessed as effect on hematopoietic parameters at 100 mg/kg/day, ip for 7 days. Conditions: in vivo, 168 h. In kind it is organism-based.
Series [6] in a line: Toxicity in athymic nude-Foxn1nu mouse assessed as effect on kidney at 100 mg/kg/day, ip for 7 days by H and E staining based histo-pathological analysis. Conditions: in vivo, 168 h. In kind it is organism-based.
The test system of the next series is PBMC. Nature of the series: Antiproliferative activity against PBMC from healthy human assessed as reduction in cell viability at 10 to 20 uM by MTT assay. In kind it is cell-based. On the technique in general: Tetrazolium dyes change colour on reduction, which living cells bring about.
The nature of series [7]: Antiproliferative activity against CD34-positive blood stem/progenitor cells from healthy human assessed as reduction in cell viability at 20 uM by trypan blue exclusion based assay.
For the next series, the system named is NCI-H1299. Nature of the series: Inhibition of cell proliferation in human NCI-H1299 cells assessed as reduction in cell number by MTT assay. The format is functional, cell-based.
Series [8] has as its system KG-1a. In words: Inhibition of cell proliferation in human KG1a cells assessed as reduction in cell number by MTT assay. In kind it is functional, cell-based.
The nature of series [9]: Inhibition of cell proliferation in human Tu212LN cells assessed as reduction in cell number by MTT assay. In kind it is functional, cell-based.
The nature of series [10]: Toxicity in athymic nude-Foxn1nu mouse assessed as effect on lung at 100 mg/kg/day, ip for 7 days by H and E staining based histo-pathological analysis. In kind it is organism-based. Conditions: in vivo, 168 h.
Series [11] is described as follows: Toxicity in athymic nude-Foxn1nu mouse assessed as effect on liver at 100 mg/kg/day, ip for 7 days by H and E staining based histo-pathological analysis. Conditions: in vivo, 168 h. The format is organism-based.
A short description of series [12]: Toxicity in athymic nude-Foxn1nu mouse assessed as effect on spleen at 100 mg/kg/day, ip for 7 days by H and E staining based histo-pathological analysis. The format is organism-based. Conditions: in vivo, 168 h.
Series [13] concerns KG-1a. Nature of the series: Inhibition of cell proliferation in human KG1a cells assessed as reduction in cell number by trypan blue exclusion based assay. The format is functional.

As for `O=C1c2ccccc2C(=O)c2c1cc(S(=O)(=O)Nc1ccc(C(F)(F)F)cc1)c(O)c2O`, the Activity result is recorded as “Non-Toxic” in the series with NHDF; “Non-Toxic” in the series on HFF; “Non-Toxic” in the series on HaCaT; “Non-Toxic” in series [1]; 100 mg/kg/day in [2]; “Non-Toxic” in series [3]. The Activity entry (in series [4]; in series [5]; in [6]; with PBMC; in series [7]; in series [10]) was “Non-Toxic” each time. In addition, the Activity entry in [11] and in series [12] was “Non-Toxic” throughout. Moreover, the results for the IC50 (in the series with NCI-H1299; in the series on KG-1a [8]; in series [9]) were 25.6 µM, 17.1 µM and 26.5 µM, respectively.

Regarding `O=C1c2ccccc2C(=O)c2c1ccc(O)c2O` [ATHRAQUINONES A], the figures for the IC50 in the series with KG-1a [13] and in the series with KG-1a [8] were 58.6 µM and 60.2 µM, respectively.
